Key:
HiPS-ELC-TFs = assay: TEER of HiPS-ELC-TFs (tight junction function); type: cell-based, human; details: under action of C10 (tight junction opener); without C10 about 430; FIG. 18A
From the text: The tight junction function was confirmed by measuring TEER.

CYP3A4 [1] = tested on: CYP3A4
From the text: (§1) As comparative cells, Caco-2 cells and LS180 cells were similarly investigated.

ANPEP = ANPEP expression by quantitative real-time RT-PCR in cells differentiating from human iPS cells to enterocyte-like cells; type: cell-based; details: compound added with BIO and DAPT, 5 days culture; versus control without the compounds; FIG. 2B
Description: (§2) The definitive endoderm cells generated from the human iPS cell line (Tic) by the method described in Example 1 above were further cultured for 15 days using the medium 3. During a period from day 4 to day 19 after the initiation of differentiation induction, BIO (5 μM) and DAPT (10 μM) were added to the culture system. Simultaneously with the addition of the BIO and the DAPT, the cells were further cultured for 5 days using the medium 3 supplemented with any one of phorbol-myristate-acetate (PMA), transforming growth factor β1 (TGEβ1), Wortmannin, Noggin, SB431542, Follistatin, EGF, R-spondin1, Pentagastrin, or Wnt3a (FIG. 2A and FIG. 3A).
(§3) With regard to the measurement of the enterocyte markers ANPEP and VILLIN, each of the enterocyte markers was measured by a quantitative real-time RT-PCR method using SYBR Green gene expression assays (APPLIED BIOSYSTEMS). […] Thus, high expressions of ANPEP and VILLIN were found when the cells were cultured in the system containing SB431542, EGF, or Wnt3a.
The quantitative real-time RT-PCR was performed by the following method. With the use of ISOGEN (NIPPON GENE), total RNA was collected from the enterocyte-like cells obtained by differentiation induction from the human iPS cells. Each total RNA was treated with RNase-free DNaseI (NEW ENGLAND BIOLABS), and then subjected to a reverse transcription reaction using […] VILO cDNA Synthesis Kit (INVITROGEN) to synthesize complementary DNA (cDNA). As a positive control, the total RNA (CLONTECH, BIOCHAIN four lots in total) of a human adult small intestine (human adult intestine: hereinafter sometimes referred to as “AI”) tissue to be used was similarly subjected to cDNA synthesis. A quantitative real-time RT-PCR method using SYBR Green gene expression assays (APPLIED BIOSYSTEMS) was performed, and quantification was performed with STEPONEPLUS real-time PCR System (APPLIED BIOSYSTEMS).

VILLIN = VILLIN expression by quantitative real-time RT-PCR in cells differentiating from human iPS cells to enterocyte-like cells; type: cell-based; details: compound added with BIO and DAPT, 5 days culture; versus control without the compounds; FIG. 3B
Description: as §2, §3
The quantitative real-time RT-PCR was performed by the following method. […] A quantitative real-time RT-PCR method using SYBR Green gene expression assays (APPLIED BIOSYSTEMS) was performed, and quantification was performed with STEPONEPLUS real-time PCR System (APPLIED BIOSYSTEMS).

CYP3A4 [2] = tested on: CYP3A4; remark: listed apart in the source
Description: As control cells, Caco-2 cells were similarly subjected to measurement. The expression level of the gene was measured by a real-time RT-PCR method.
as §1

Compound	CYP3A4 expression induction (CYP3A4 [1])	expression of ANPEP (ANPEP)	expression of VILLIN (VILLIN)	other results
CCCCCCCCCC(=O)O [C10, capric acid]	–	–	–	TEER value of the HiPS-ELC-TFs (HiPS-ELC-TFs): ~0 Ω·cm^2
CCC1(c2ccccc2)C(=O)NC(=O)NC1=O [PB, phenobarbital]	significant expression induction	–	–	–
CCCCCCCCCCCCCC(=O)O[C@@H]1[C@@H](C)[C@@]2(O)[C@@H](C=C(CO)C[C@]3(O)C(=O)C(C)=C[C@@H]23)[C@@H]2C(C)(C)[C@]12OC(C)=O [PMA, phorbol-myristate-acetate]	–	high value	–	–
NC(=O)c1ccc(-c2nc(-c3ccc4c(c3)OCO4)c(-c3ccccn3)[nH]2)cc1 [SB431542]	–	high value	high value	–
C=C1CC[C@H](O)C/C1=C/C=C1\CCC[C@]2(C)[C@@H]([C@H](C)CCCC(C)C)CC[C@@H]12 [VD3, vitamin D3]	significant expression induction	–	–	CYP3A4 induction (CYP3A4 [2]): confirmed; CYP3A4 gene expression level increase as compared to DMSO action group (CYP3A4 gene): about 100 fold; CYP3A4 protein expression level (CYP3A4 protein): increased
epidermal growth factor [EGF]	–	high value	high value	–

Source: patent publication US10889805B2, “Intestinal epithelioid cells” (National Institutes of Biomedical Innovation, Health and …, priority 2015, dated 2021)
